From PubChem BioAssay AID2060888 (Molecular Pharmacology Branch, DTP, NCI, 2025)
pIC50: −log10 of the molar value. Each block holds one compound with its values, some of them ahead of it.

Tested on: 695427-040-R-J1-PDC complex spheroid viability
Assay: Anticancer human tumor 695427-040-R-J1-PDC patient-derived colon adenocarcinoma cell line growth inhibition [RAS]
Settings: for pIC50: curve of first compound; for viability, T/C: stronger effect = lower value
Method in brief: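 Tumour cells grown as complex spheroids with HUVEC endothelial cells and mesenchymal stem cells, treated with RAS pathway inhibitor combinations. Each agent spans half-log steps from near clinical Cmax, or 10 microM where Cmax is unknown.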

[1] = second compound 0.00316 µM, first compound 0.00316 µM
[2] = second compound 0.00316 µM, first compound 0.01 µM
[3] = second compound 0.00316 µM, first compound 0.0316 µM
[4] = second compound 0.00316 µM, first compound 0.1 µM
[5] = second compound 0.01 µM, first compound 0.00316 µM
[6] = second compound 0.01 µM, first compound 0.01 µM
[7] = second compound 0.01 µM, first compound 0.0316 µM
[8] = second compound 0.01 µM, first compound 0.1 µM
[9] = second compound 0.0316 µM, first compound 0.00316 µM
[10] = second compound 0.0316 µM, first compound 0.01 µM
[11] = second compound 0.0316 µM, first compound 0.0316 µM
[12] = second compound 0.0316 µM, first compound 0.1 µM
[13] = second compound 0.1 µM, first compound 0.00316 µM
[14] = second compound 0.1 µM, first compound 0.01 µM
[15] = second compound 0.1 µM, first compound 0.0316 µM
[16] = second compound 0.1 µM, first compound 0.1 µM
[17] = second compound 0.316 µM, first compound 0.00316 µM
[18] = second compound 0.316 µM, first compound 0.01 µM
[19] = second compound 0.316 µM, first compound 0.0316 µM
[20] = second compound 0.316 µM, first compound 0.1 µM
[21] = second compound 1 µM, first compound 0.00316 µM
[22] = second compound 1 µM, first compound 0.01 µM
[23] = second compound 1 µM, first compound 0.0316 µM
[24] = second compound 1 µM, first compound 0.1 µM
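Further: viability read after seven days of drug exposure.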
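Wherever viability, T/C is given: 100% = DMSO vehicle control viability.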

pIC50 (second compound 0.00316 µM): < 7.00
pIC50 (second compound 0.01 µM): < 7.00
pIC50 (second compound 0.0316 µM): < 7.00
pIC50 (second compound 0.1 µM): < 7.00
pIC50 (second compound 0.316 µM): < 7.00
pIC50 (second compound 1 µM): < 7.00
SMILES: CC(C)n1nc(-c2ccc3oc(N)nc3c2)c2c(N)ncnc21 + C=CC(=O)N1CCN(c2nc(OCC3CCCN3C)nc3c(F)c(-c4nc(N)cc(C)c4C(F)(F)F)c(Cl)cc23)C(C)C1
viability, T/C (second compound 0.00316 µM, first compound 0.000316 µM): 98.5%
viability, T/C (second compound 0.00316 µM, first compound 0.001 µM): 96.5%
viability, T/C [1]: 82.4%
viability, T/C [2]: 80.2%
viability, T/C [3]: 72.2%
viability, T/C [4]: 61.8%
viability, T/C (second compound 0.01 µM, first compound 0.000316 µM): 106%
viability, T/C (second compound 0.01 µM, first compound 0.001 µM): 87.4%
viability, T/C [5]: 96.5%
viability, T/C [6]: 79.9%
viability, T/C [7]: 70.9%
viability, T/C [8]: 58.1%
viability, T/C (second compound 0.0316 µM, first compound 0.000316 µM): 101%
viability, T/C (second compound 0.0316 µM, first compound 0.001 µM): 89.8%
viability, T/C [9]: 86%
viability, T/C [10]: 75%
viability, T/C [11]: 76.5%
viability, T/C [12]: 65%
viability, T/C (second compound 0.1 µM, first compound 0.000316 µM): 103%
viability, T/C (second compound 0.1 µM, first compound 0.001 µM): 96.1%
viability, T/C [13]: 90%
viability, T/C [14]: 77%
viability, T/C [15]: 70.4%
viability, T/C [16]: 66.7%
viability, T/C (second compound 0.316 µM, first compound 0.000316 µM): 101%
viability, T/C (second compound 0.316 µM, first compound 0.001 µM): 88.6%
viability, T/C [17]: 88.8%
viability, T/C [18]: 84%
viability, T/C [19]: 69.9%
viability, T/C [20]: 61.6%
viability, T/C (second compound 1 µM, first compound 0.000316 µM): 98.4%
viability, T/C (second compound 1 µM, first compound 0.001 µM): 87.1%
viability, T/C [21]: 88.3%
viability, T/C [22]: 78.3%
viability, T/C [23]: 72.6%
viability, T/C [24]: 63.4%

pIC50 (second compound 0.00316 µM): < 6.00
pIC50 (second compound 0.01 µM): < 6.00
pIC50 (second compound 0.0316 µM): < 6.00
pIC50 (second compound 0.1 µM): < 6.00
pIC50 (second compound 0.316 µM): < 6.00
pIC50 (second compound 1 µM): < 6.00
SMILES: Nc1ccn(C2OC(CO)C(O)C2(F)F)c(=O)n1 (stereo unspecified) + C=CC(=O)N1CCN(c2nc(OCC3CCCN3C)nc3c(F)c(-c4nc(N)cc(C)c4C(F)(F)F)c(Cl)cc23)C(C)C1
viability, T/C [1]: 93.3%
viability, T/C [2]: 88.1%
viability, T/C [3]: 77.5%
viability, T/C [4]: 84.9%
viability, T/C (second compound 0.00316 µM, first compound 0.316 µM): 72.1%
viability, T/C (second compound 0.00316 µM, first compound 1 µM): 69.6%
viability, T/C [5]: 94.4%
viability, T/C [6]: 87.2%
viability, T/C [7]: 84.3%
viability, T/C [8]: 74.3%
viability, T/C (second compound 0.01 µM, first compound 0.316 µM): 76.2%
viability, T/C (second compound 0.01 µM, first compound 1 µM): 69.5%
viability, T/C [9]: 92.9%
viability, T/C [10]: 80.5%
viability, T/C [11]: 77.9%
viability, T/C [12]: 73.8%
viability, T/C (second compound 0.0316 µM, first compound 0.316 µM): 76.5%
viability, T/C (second compound 0.0316 µM, first compound 1 µM): 70.8%
viability, T/C [13]: 96.9%
viability, T/C [14]: 78.4%
viability, T/C [15]: 77.8%
viability, T/C [16]: 80.2%
viability, T/C (second compound 0.1 µM, first compound 0.316 µM): 74.2%
viability, T/C (second compound 0.1 µM, first compound 1 µM): 72.9%
viability, T/C [17]: 93.8%
viability, T/C [18]: 84.2%
viability, T/C [19]: 91.3%
viability, T/C [20]: 77.5%
viability, T/C (second compound 0.316 µM, first compound 0.316 µM): 80.4%
viability, T/C (second compound 0.316 µM, first compound 1 µM): 69.7%
viability, T/C [21]: 92.7%
viability, T/C [22]: 85.5%
viability, T/C [23]: 77.9%
viability, T/C [24]: 81.5%
viability, T/C (second compound 1 µM, first compound 0.316 µM): 86.9%
viability, T/C (second compound 1 µM, first compound 1 µM): 69.7%

pIC50 (second compound 0.000949 µM): 6.97
pIC50 (second compound 0.003 µM): 7.14
pIC50 (second compound 0.00949 µM): 7.25
pIC50 (second compound 0.03 µM): 8.11
pIC50 (second compound 0.0949 µM): > 9.02
pIC50 (second compound 0.3 µM): > 9.02
SMILES: CCc1c2c(nc3ccc(O)cc13)-c1cc3c(c(=O)n1C2)COC(=O)[C@]3(O)CC + CCn1c(-c2cc(N3CCN(C)CC3)cnc2C(C)OC)c2c3cc(ccc31)-c1csc(n1)CC(NC(=O)C1CC1C)C(=O)N1CCCC(N1)C(=O)OCC(C)(C)C2
viability, T/C (second compound 0.000949 µM, first compound 0.000949 µM): 88.8%
viability, T/C (second compound 0.000949 µM, first compound 0.003 µM): 87%
viability, T/C (second compound 0.000949 µM, first compound 0.00949 µM): 75.6%
viability, T/C (second compound 0.000949 µM, first compound 0.03 µM): 61.8%
viability, T/C (second compound 0.000949 µM, first compound 0.0949 µM): 55.4%
viability, T/C (second compound 0.000949 µM, first compound 0.3 µM): 33.7%
viability, T/C (second compound 0.003 µM, first compound 0.000949 µM): 103%
viability, T/C (second compound 0.003 µM, first compound 0.003 µM): 86.1%
viability, T/C (second compound 0.003 µM, first compound 0.00949 µM): 66%
viability, T/C (second compound 0.003 µM, first compound 0.03 µM): 63.6%
viability, T/C (second compound 0.003 µM, first compound 0.0949 µM): 48%
viability, T/C (second compound 0.003 µM, first compound 0.3 µM): 36.3%
viability, T/C (second compound 0.00949 µM, first compound 0.000949 µM): 82.3%
viability, T/C (second compound 0.00949 µM, first compound 0.003 µM): 64%
viability, T/C (second compound 0.00949 µM, first compound 0.00949 µM): 65%
viability, T/C (second compound 0.00949 µM, first compound 0.03 µM): 57.8%
viability, T/C (second compound 0.00949 µM, first compound 0.0949 µM): 50%
viability, T/C (second compound 0.00949 µM, first compound 0.3 µM): 26.6%
viability, T/C (second compound 0.03 µM, first compound 0.000949 µM): 59.2%
viability, T/C (second compound 0.03 µM, first compound 0.003 µM): 51.6%
viability, T/C (second compound 0.03 µM, first compound 0.00949 µM): 55.3%
viability, T/C (second compound 0.03 µM, first compound 0.03 µM): 35.3%
viability, T/C (second compound 0.03 µM, first compound 0.0949 µM): 41.6%
viability, T/C (second compound 0.03 µM, first compound 0.3 µM): 27.9%
viability, T/C (second compound 0.0949 µM, first compound 0.000949 µM): 45.2%
viability, T/C (second compound 0.0949 µM, first compound 0.003 µM): 41.7%
viability, T/C (second compound 0.0949 µM, first compound 0.00949 µM): 46.7%
viability, T/C (second compound 0.0949 µM, first compound 0.03 µM): 31.8%
viability, T/C (second compound 0.0949 µM, first compound 0.0949 µM): 30.7%
viability, T/C (second compound 0.0949 µM, first compound 0.3 µM): 20.5%
viability, T/C (second compound 0.3 µM, first compound 0.000949 µM): 38.1%
viability, T/C (second compound 0.3 µM, first compound 0.003 µM): 37.6%
viability, T/C (second compound 0.3 µM, first compound 0.00949 µM): 28.2%
viability, T/C (second compound 0.3 µM, first compound 0.03 µM): 30.8%
viability, T/C (second compound 0.3 µM, first compound 0.0949 µM): 23.8%
viability, T/C (second compound 0.3 µM, first compound 0.3 µM): 16.9%
